The values that follow come from US6503906B1 (priority 2002, dated 2003).

Assay [1] concerns anthrax. The experiment in a line: microbe, parasite or virus in culture. To be noted: Bacillus anthracis, read-out: MIC against anthrax, mid point adopted in the models. Type of assay: cell-based.
The subject of assay [2] is gram positive and negative bacteria. The conditions noted are these: human, in vivo; cited from earlier work.
Assay [3] has as its system anthrax. Set-up: species or system human.
The test system of assay [4] is Bacillus anthracis spores. To be noted: rhesus monkey, in vivo; cited from earlier work.
Another assay deals with inhalational anthrax. The conditions noted are these: human, in vivo; cited from earlier work.
In assay [5] the test system is most other infectious organisms. The conditions noted are these: in vivo; cited from earlier work.

SMILES strings stand for the structures. ≈ marks a conversion by molar mass, not a printed value.

In the case of `O=C(O)c1cn(C2CC2)c2cc(N3CCNCC3)c(F)cc2c1=O` [ciprofloxacin], the MIC in the assay on anthrax [1] amounted to 0.07 µg/mL (≈ 0.211 µM). Besides, in assay [2], the “MIC range of the bacteria in the literature study” value is 0.008 to 0.4 µg/mL and the “time to complete bacteria eradication” value was “more than 10 days”. For the same compound, in the assay with anthrax [3], the “drop of mortality rate” value came to 2 folds and the “reduction of mortality rate with optimized regimens compared to currently recommended regimens” value is on record as “up to 2 folds”. Also, in assay [4], the “protection from the disease” value is reported as “adequately protected from the disease” and the “survival rate of ciprofloxacin-treated animals” value was 90%. Also, in the assay with inhalational anthrax, the “overall survival of the US patients” value is recorded as 55% and the “survival rate of anthrax patients treated with the drug” value is listed as 50˜60%. The “effectiveness against most other infectious organisms” value in assay [5] is recorded as “over 80%”.
